Laboratory results reported in ChEMBL document CHEMBL3882387, “Combination of selected analgesics and COX-II inhibitors” (2005).

Legend:
Type in all cases: functional
Rattus norvegicus [1] = experiment: (§1) Analgesic activity in rat assessed as reduction in baking yeast suspension-induced hind paw oedema by measuring combination effect at 46.4 mg/kg, po co-administered with 215 mg/kg COX2 inhibitor celecoxib (celebrex) 1 hr prior to compound addition by Randall-selitto test relative to control; design: scale not given: the % may be the effect or the level left
Rattus norvegicus [2] = experiment: Analgesic activity in rat assessed as reduction in baking yeast suspension-induced hind paw oedema by measuring combination effect at 21.5 mg/kg, po co-administered with 215 mg/kg COX2 inhibitor celecoxib (celebrex) 1 hr prior to compound addition by Randall-selitto test relative to control; design: scale not given: the % may be the effect or the level left
Rattus norvegicus [3] = experiment: as §1, with “68.1” for “46.4”, “coadministered” for “co-administered”, “addition measured after 15 to 75 mins” for “addition”; design: scale not given: the % may be the effect or the level left
Rattus norvegicus [4] = experiment: as §1, with “68.1” for “46.4”, “coadministered” for “co-administered”, “addition measured after 75 to 90 mins” for “addition”; design: scale not given: the % may be the effect or the level left
Rattus norvegicus [5] = experiment: Analgesic activity in rat assessed as reduction in baking yeast suspension-induced hind paw oedema at 215 mg/kg, po pretreated for 1 hr followed by 31 mg/kg (1R,2R)-3-(3-dimethylamino-l-ethyl-2-methyl-propyl)-phenol; hydrochloride addition by Randall-selitto test relative to control; design: scale not given: the % may be the effect or the level left
Rattus norvegicus [6] = experiment: (§2) Analgesic activity in rat assessed as reduction in baking yeast suspension-induced hind paw oedema at 215 mg/kg, po pretreated for 1 hr followed by 68.1 mg/kg (1RS,3RS,6RS)-6-dimethylaminomethyl-1-(3-[methoxy-phenyl)-cyclohexane-1,3-diol;hydrochloride addition measured after 15 to 75 mins by Randall-selitto test relative to control; design: scale not given: the % may be the effect or the level left
Rattus norvegicus [7] = experiment: Analgesic activity in rat assessed as reduction in baking yeast suspension-induced hind paw oedema at 215 mg/kg, po pretreated for 1 hr followed by 46.4 mg/kg ((1R,2R)-3-(2-dimethylaminomethyl-cyclohexyl)-phenol;1 hydrochloride addition by Randall-selitto test relative to control; design: scale not given: the % may be the effect or the level left
Rattus norvegicus [8] = experiment: Analgesic activity in rat assessed as reduction in baking yeast suspension-induced hind paw oedema at 215 mg/kg, po pretreated for 1 hr followed by 21.5 mg/kg (1S,2S)-3-(3-dimethylamino-l-ethyl-2-methyl-propyl)-phenol;hydrochloride addition by Randall-selitto test relative to control; design: scale not given: the % may be the effect or the level left
Rattus norvegicus [9] = experiment: Analgesic activity in rat assessed as reduction in baking yeast suspension-induced hind paw oedema at 215 mg/kg, po pretreated for 1 hr followed by 46 mg/kg (1R,2R)-3-(3-dimethylamino-l-ethyl-2-methyl-propyl)-phenol; hydrochloride addition by Randall-selitto test relative to control; design: scale not given: the % may be the effect or the level left
Rattus norvegicus [10] = experiment: as §2, with “after 75” for “after 15”, “to 90” for “to 75”; design: scale not given: the % may be the effect or the level left
Rattus norvegicus [11] = experiment: Analgesic activity in rat assessed as reduction in baking yeast suspension-induced hind paw oedema at 215 mg/kg, po co-administered with 31 mg/kg (1R,2R)-3-(3-dimethylamino-l-ethyl-2-methyl-propyl)-phenol; hydrochloride by Randall-selitto test relative to control; design: scale not given: the % may be the effect or the level left
Rattus norvegicus [12] = experiment: Analgesic activity in rat assessed as reduction in baking yeast suspension-induced hind paw oedema by measuring combination effect at 46 mg/kg, po coadministered with 215 mg/kg COX2 inhibitor rofecoxib (vioxx) 1 hr prior to compound addition by Randall-selitto test relative to control; design: scale not given: the % may be the effect or the level left
Rattus norvegicus [13] = experiment: Analgesic activity in rat assessed as reduction in baking yeast suspension-induced hind paw oedema at 31 mg/kg, po by measuring combination effect co-administered with 215 mg/kg COX2 inhibitor celecoxib by Randall-selitto test relative to control; design: scale not given: the % may be the effect or the level left
Rattus norvegicus [14] = experiment: Analgesic activity in rat assessed as reduction in baking yeast suspension-induced hind paw oedema by measuring combination effect at 31 mg/kg, po coadministered with 215 mg/kg COX2 inhibitor rofecoxib (vioxx) 1 hr prior to compound addition by Randall-selitto test relative to control; design: scale not given: the % may be the effect or the level left
Rattus norvegicus [15] = experiment: Analgesic activity in po dosed formalin-induced chronic pain rat model assessed as reduction in behavioural change by measuring combination ED50 co-administered with COX2 inhibitor celecoxib measured up to 60 mins by formalin test; conditions: 1 h
Rattus norvegicus [16] = experiment: Analgesic activity in po dosed rat assessed as reduction in acetic acid-induced writhings by measuring combination ED50 co-administered with COX2 inhibitor rofecoxib pretreated for 30 mins followed by acetic acid challenge measured after 10 to 35 mins by writhing test
Rattus norvegicus [17] = experiment: Analgesic activity in rat assessed as reduction in baking yeast suspension-induced hind paw oedema by measuring combination effect at 31 mg/kg, po co-administered with 215 mg/kg COX2 inhibitor celecoxib (celebrex) by Randall-selitto test relative to control; design: scale not given: the % may be the effect or the level left
Rattus norvegicus [18] = experiment: Analgesic activity in rat assessed as reduction in baking yeast suspension-induced hind paw oedema by measuring combination effect at 46 mg/kg, po co-administered with 215 mg/kg COX2 inhibitor celecoxib (celebrex) by Randall-selitto test relative to control; design: scale not given: the % may be the effect or the level left
Rattus norvegicus [19] = experiment: Analgesic activity in rat assessed as reduction in baking yeast suspension-induced hind paw oedema at 31 mg/kg, po by measuring combination effect co-administered with 215 mg/kg COX2 inhibitor rofecoxib (vioxx) by Randall-selitto test relative to control; design: scale not given: the % may be the effect or the level left

## CN(C)C[C@@H]1CCCC[C@H]1c1cccc(O)c1.Cl
Rattus norvegicus [1]
  Activity: 84.1%

## CC[C@H](c1cccc(O)c1)[C@H](C)CN(C)C.Cl
Rattus norvegicus [2]
  Activity: 96.4%

## COc1cccc([C@@]2(O)C[C@H](O)CC[C@@H]2CN(C)C)c1.Cl (racemic)
Rattus norvegicus [3]
  Activity: 109.3%
Rattus norvegicus [4]
  Activity: 68.5%

## Cc1ccc(-c2cc(C(F)(F)F)nn2-c2ccc(S(N)(=O)=O)cc2)cc1 [CELECOXIB]
Rattus norvegicus [5]
  Activity: 17.3%
Rattus norvegicus [6]
  Activity: 16.7%
Rattus norvegicus [7]
  Activity: 8.9%
Rattus norvegicus [8]
  Activity: 8.9%
Rattus norvegicus [9]
  Activity: 17.3%
Rattus norvegicus [10]
  Activity: 8%

## CS(=O)(=O)c1ccc(C2=C(c3ccccc3)C(=O)OC2)cc1 [ROFECOXIB]
Rattus norvegicus [5]
  Activity: 13%
Rattus norvegicus [11]
  Activity: 11.2%
Rattus norvegicus [9]
  Activity: 13%

## CC[C@@H](c1cccc(O)c1)[C@@H](C)CN(C)C.Cl [TAPENTADOL HYDROCHLORIDE]
Rattus norvegicus [12]
  Activity: 59.8%
Rattus norvegicus [13]
  Activity: 29.6%
Rattus norvegicus [14]
  Activity: 45.7%
Rattus norvegicus [15]
  ED50: 60.6 mg/kg
Rattus norvegicus [16]
  ED50: 23.3 mg/kg
Rattus norvegicus [17]
  Activity: 60.9%
Rattus norvegicus [18]
  Activity: 86.1%
Rattus norvegicus [19]
  Activity: 29.7%
